Like-named read-outs stand apart in the source and are kept apart here.
How the values were obtained:
Assay type in all cases: cell-based
[1] = Compound cytotoxicity, XTT-based colorimetric assay; settings: human; uninfected MT2 cells, day 4, XTT-based colorimetric assay
Method in brief: (§1)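 Run under the antiviral-assay protocol but without virus. Viability was read on day 4 and CC50 values were derived from the readout.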

[2] = test system: recombinant NL4-3 virus (nef section replaced with Renilla luciferase gene) in MT-2 cells; assay: HIV cell culture assay (antiviral activity, luciferase readout)
Method in brief: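 MT-2 cells were infected for 4-5 days with 293T-derived NL4-3 Renilla-luciferase reporter virus in the presence of serial compound dilutions. Luciferase was read with EnduRen live-cell substrate. EC50 was fitted with the median effect equation.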

[3] = test system: uninfected MT2 cells; assay: Compound cytotoxicity, XTT-based colorimetric assay; settings: day 4, XTT-based colorimetric assay
Method in brief: as §1

| SMILES | CC50 at 4 days [1] | EC50 ([2]; Renilla, NL43) | CC50 [3] | EC50 ([2]; MT-2 cells infected for 4-5 days with recombinant NL4-3 Renilla luciferase virus, luciferase activity, read-out: EC50) |
| --- | --- | --- | --- | --- |
| O=C(Cn1nc(C(F)F)c2c1C(F)(F)[C@@H]1C[C@H]21)N[C@@H](Cc1cc(F)cc(F)c1)c1nc(-c2ncc(F)cn2)cc(=O)n1-c1ccc(Cl)c2c(NS(=O)(=O)C3CC3)nn(CC(F)F)c12 (atropisomer, axis not shown; (aR)) [Example 30, N-((S)-1-((1′P)-1′-(4-chloro-3-(cyclopropanesulfonamido)-1-(2,2-difluoroethyl)-1H-indazol-7-yl)-5-fluoro-6′-oxo-1′,6′-dihydro-[2,4′-bipyrimidin]-2′-yl)-2-(3,5-difluorophenyl)ethyl)-2-((3bS,4aR)-3-(difluoromethyl)-5,5-difluoro-3b,4,4a,5-tetrahydro-1H-cyclopropa[3,4]cyclopenta[1,2-c]pyrazol-1-yl)acetamide] | > 100000 pM | 200 pM | – | – |
| O=C(Cn1nc(C(F)(F)F)c2c1C(F)(F)[C@@H]1C[C@H]21)N[C@@H](Cc1cc(F)cc(F)c1)c1nc(-c2nccc(C(F)F)n2)cc(=O)n1-c1ccc(Cl)c2c(NS(=O)(=O)C3CC3)nn(CC(F)F)c12 (atropisomer, axis not shown; (aR)) [Example 32, N-((S)-1-((1′P)-1′-(4-chloro-3-(cyclopropanesulfonamido)-1-(2,2-difluoroethyl)-1H-indazol-7-yl)-4-(difluoromethyl)-6′-oxo-1′,6′-dihydro-[2,4′-bipyrimidin]-2′-yl)-2-(3,5-difluorophenyl)ethyl)-2-((3bS,4aR)-5,5-difluoro-3-(trifluoromethyl)-3b,4,4a,5-tetrahydro-1H-cyclopropa[3,4]cyclopenta[1,2-c]pyrazol-1-yl)acetamide] | > 100000 pM | 300 pM | – | – |
| COc1ccnc(-c2cc(=O)n(-c3ccc(Cl)c4c(NS(=O)(=O)C5CC5)nn(CC(F)F)c34)c([C@H](Cc3cc(F)cc(F)c3)NC(=O)Cn3nc(C(F)F)c4c3C(F)(F)[C@@H]3C[C@H]43)n2)n1 (atropisomer, axis not shown; (aR)) [Example 33, N-((S)-1-((1′P)-1′-(4-chloro-3-(cyclopropanesulfonamido)-1-(2,2-difluoroethyl)-1H-indazol-7-yl)-4-methoxy-6′-oxo-1′,6′-dihydro-[2,4′-bipyrimidin]-2′-yl)-2-(3,5-difluorophenyl)ethyl)-2-((3bS,4aR)-3-(difluoromethyl)-5,5-difluoro-3b,4,4a,5-tetrahydro-1H-cyclopropa[3,4]cyclopenta[1,2-c]pyrazol-1-yl)acetamide] | > 100000 pM | 130 pM | – | – |
| Cc1cc(C)nc(-c2cc(=O)n(-c3ccc(Cl)c4c(NS(=O)(=O)C5CC5)nn(CC(F)F)c34)c([C@H](Cc3cc(F)cc(F)c3)NC(=O)Cn3nc(C(F)F)c4c3C(F)(F)[C@@H]3C[C@H]43)n2)n1 (atropisomer, axis not shown; (aR)) [Example 34, N-((S)-1-(1′-(4-chloro-3-(cyclopropanesulfonamido)-1-(2,2-difluoroethyl)-1H-indazol-7-yl)-4,6-dimethyl-6′-oxo-1′,6′-dihydro-[2,4′-bipyrimidin]-2′-yl)-2-(3,5-difluorophenyl)ethyl)-2-((3bS,4aR)-3-(difluoromethyl)-5,5-difluoro-3b,4,4a,5-tetrahydro-1H-cyclopropa[3,4]cyclopenta[1,2-c]pyrazol-1-yl)acetamide] | > 100000 pM | 240 pM | – | – |
| CCc1cnc(-c2cc(=O)n(-c3ccc(Cl)c4c(NS(=O)(=O)C5CC5)nn(CC(F)F)c34)c([C@H](Cc3cc(F)cc(F)c3)NC(=O)Cn3nc(C(F)F)c4c3C(F)(F)[C@@H]3C[C@H]43)n2)nc1 (atropisomer, axis not shown; (aR)) [Example 39, N-((S)-1-((1′P)-1′-(4-chloro-3-(cyclopropanesulfonamido)-1-(2,2-difluoroethyl)-1H-indazol-7-yl)-5-ethyl-6′-oxo-1′,6′-dihydro-[2,4′-bipyrimidin]-2′-yl)-2-(3,5-difluorophenyl)ethyl)-2-((3bS,4aR)-3-(difluoromethyl)-5,5-difluoro-3b,4,4a,5-tetrahydro-1H-cyclopropa[3,4]cyclopenta[1,2-c]pyrazol-1-yl)acetamide] | > 100000 pM | 59 pM | – | – |
| Cc1ccnc(-c2cc(=O)n(-c3ccc(Cl)c4c(NS(=O)(=O)C5CC5)nn(CC(F)F)c34)c([C@H](Cc3cc(F)cc(F)c3)NC(=O)Cn3nc(C(F)F)c4c3C(F)(F)[C@@H]3C[C@H]43)n2)n1 (atropisomer, axis not shown; (aR)) [Example 43, N-((S)-1-((1′P)-1′-(4-chloro-3-(cyclopropanesulfonamido)-1-(2,2-difluoroethyl)-1H-indazol-7-yl)-4-methyl-6′-oxo-1′,6′-dihydro-[2,4′-bipyrimidin]-2′-yl)-2-(3,5-difluorophenyl)ethyl)-2-((3bS,4aR)-3-(difluoromethyl)-5,5-difluoro-3b,4,4a,5-tetrahydro-1H-cyclopropa[3,4]cyclopenta[1,2-c]pyrazol-1-yl)acetamide] | > 100000 pM | 170 pM | – | – |
| O=C(Cn1nc(C(F)F)c2c1C(F)(F)[C@@H]1C[C@H]21)N[C@@H](Cc1cc(F)cc(F)c1)c1nc(-c2nccc(C(F)(F)F)n2)cc(=O)n1-c1ccc(Cl)c2c(NS(=O)(=O)C3CC3)nn(CC(F)F)c12 (atropisomer, axis not shown; (aR)) [Example 46, N-((S)-1-((1′P)-1′-(4-chloro-3-(cyclopropanesulfonamido)-1-(2,2-difluoroethyl)-1H-indazol-7-yl)-6′-oxo-4-(trifluoromethyl)-1′,6′-dihydro-[2,4′-bipyrimidin]-2′-yl)-2-(3,5-difluorophenyl)ethyl)-2-((3bS,4aR)-3-(difluoromethyl)-5,5-difluoro-3b,4,4a,5-tetrahydro-1H-cyclopropa[3,4]cyclopenta[1,2-c]pyrazol-1-yl)acetamide] | > 100000 pM | 50 pM | – | – |
| O=C(Cn1nc(C(F)F)c2c1C(F)(F)[C@@H]1C[C@H]21)N[C@@H](Cc1cc(F)cc(F)c1)c1nc(-c2ncccn2)cc(=O)n1-c1ccc(Cl)c2c(NS(=O)(=O)C3CC3)nn(CC(F)F)c12 (atropisomer, axis not shown; (aR)) [Example 48, N-((S)-1-((1′P)-1′-(4-chloro-3-(cyclopropanesulfonamido)-1-(2,2-difluoroethyl)-1H-indazol-7-yl)-6′-oxo-1′,6′-dihydro-[2,4′-bipyrimidin]-2′-yl)-2-(3,5-difluorophenyl)ethyl)-2-((3bS,4aR)-3-(difluoromethyl)-5,5-difluoro-3b,4,4a,5-tetrahydro-1H-cyclopropa[3,4]cyclopenta[1,2-c]pyrazol-1-yl)acetamide] | > 100000 pM | 180 pM | – | – |
| Cn1nc(NS(C)(=O)=O)c2c(Cl)ccc(-n3c([C@H](Cc4cc(F)cc(F)c4)NC(=O)Cn4nc(C(F)F)c5c4C(F)(F)[C@@H]4C[C@H]54)nc(-c4ccc(F)cc4F)cc3=O)c21 [Example 3, N-((S)-1-((1P)-1-(4-chloro-1-methyl-3-(methylsulfonamido)-1H-indazol-7-yl)-4-(2,4-difluorophenyl)-6-oxo-1,6-dihydropyrimidin-2-yl)-2-(3,5-difluorophenyl)ethyl)-2-((3bS,4aR)-3-(difluoromethyl)-5,5-difluoro-3b,4,4a,5-tetrahydro-1H-cyclopropa[3,4]cyclopenta[1,2-c]pyrazol-1-yl)acetamide] | – | – | > 100000 pM | 1700 pM |
| O=C(Cn1nc(C(F)(F)F)c2c1C(F)(F)[C@@H]1C[C@H]21)N[C@@H](Cc1cc(F)cc(F)c1)c1nc(-c2nccc(C(F)(F)F)n2)cc(=O)n1-c1ccc(Cl)c2c(NS(=O)(=O)C3CC3)nn(CC(F)F)c12 [Example 26, N-((S)-1-((1′P)-1′-(4-chloro-3-(cyclopropanesulfonamido)-1-(2,2-difluoroethyl)-1H-indazol-7-yl)-6′-oxo-4-(trifluoromethyl)-1′,6′-dihydro-[2,4′-bipyrimidin]-2′-yl)-2-(3,5-difluorophenyl)ethyl)-2-((3bS,4aR)-5,5-difluoro-3-(trifluoromethyl)-3b,4,4a,5-tetrahydro-1H-cyclopropa[3,4]cyclopenta[1,2-c]pyrazol-1-yl)acetamide] | > 100000 pM | 110 pM | – | – |
